Laboratory results taken from PubChem BioAssay AID2060509 (Molecular Pharmacology Branch, DTP, NCI, 2025).

Test system: 485176-168-R4-J1-PDC spheroids with HUVEC/MSC, viability
Assay: Anticancer human tumor 485176-168-R4-J1-PDC patient-derived pancreatic adenocarcinoma cell line growth inhibition [GQUAD]
Conditions: for IC50: curve of first compound; for viability, T/C: stronger effect = lower value
Summary of the method: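 Tumor cells were grown as complex spheroids with HUVEC endothelial cells and mesenchymal stem cells as stroma. G-quadruplex stabilizers were combined with targeted agents over half-log dilutions from near the clinical Cmax, or from 10 microM.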

[1] = second compound 0.0316 µM, first compound 0.0316 µM
[2] = second compound 0.0316 µM, first compound 0.1 µM
[3] = second compound 0.0316 µM, first compound 0.316 µM
[4] = second compound 0.0316 µM, first compound 1 µM
[5] = second compound 0.0316 µM, first compound 3.16 µM
[6] = second compound 0.0316 µM, first compound 10 µM
[7] = second compound 0.1 µM, first compound 0.0316 µM
[8] = second compound 0.1 µM, first compound 0.1 µM
[9] = second compound 0.1 µM, first compound 0.316 µM
[10] = second compound 0.1 µM, first compound 1 µM
[11] = second compound 0.1 µM, first compound 3.16 µM
[12] = second compound 0.1 µM, first compound 10 µM
[13] = second compound 0.316 µM, first compound 0.0316 µM
[14] = second compound 0.316 µM, first compound 0.1 µM
[15] = second compound 0.316 µM, first compound 0.316 µM
[16] = second compound 0.316 µM, first compound 1 µM
[17] = second compound 0.316 µM, first compound 3.16 µM
[18] = second compound 0.316 µM, first compound 10 µM
[19] = second compound 1 µM, first compound 0.0316 µM
[20] = second compound 1 µM, first compound 0.1 µM
[21] = second compound 1 µM, first compound 0.316 µM
[22] = second compound 1 µM, first compound 1 µM
[23] = second compound 1 µM, first compound 3.16 µM
[24] = second compound 1 µM, first compound 10 µM
[25] = second compound 3.16 µM, first compound 0.0316 µM
[26] = second compound 3.16 µM, first compound 0.1 µM
[27] = second compound 3.16 µM, first compound 0.316 µM
[28] = second compound 3.16 µM, first compound 1 µM
[29] = second compound 3.16 µM, first compound 3.16 µM
[30] = second compound 3.16 µM, first compound 10 µM
[31] = second compound 10 µM, first compound 0.0316 µM
[32] = second compound 10 µM, first compound 0.1 µM
[33] = second compound 10 µM, first compound 0.316 µM
[34] = second compound 10 µM, first compound 1 µM
[35] = second compound 10 µM, first compound 3.16 µM
[36] = second compound 10 µM, first compound 10 µM
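Further: spheroids exposed to compounds for seven days before readout.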
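Wherever viability, T/C is given: percent viability relative to DMSO vehicle control wells as 100%.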

Cc1cccc(N(C)C(=O)C2C(O)CCN2c2nc(C)cc(C(F)(F)F)c2C#N)c1 (centres undefined) + Cc1[nH]c2ccc(F)cc2c1-c1nc2c3cccnc3c3ncccc3c2[nH]1
IC50 (second compound 0.0316 µM): > 10 µM
IC50 (second compound 0.1 µM): > 10 µM
IC50 (second compound 0.316 µM): > 10 µM
IC50 (second compound 1 µM): > 10 µM
IC50 (second compound 3.16 µM): > 10 µM
IC50 (second compound 10 µM): > 10 µM
viability, T/C [1]: 102%
viability, T/C [2]: 95.1%
viability, T/C [3]: 99.2%
viability, T/C [4]: 89%
viability, T/C [5]: 94.1%
viability, T/C [6]: 99.2%
viability, T/C [7]: 85.9%
viability, T/C [8]: 95.4%
viability, T/C [9]: 93.1%
viability, T/C [10]: 99%
viability, T/C [11]: 109%
viability, T/C [12]: 114%
viability, T/C [13]: 93.1%
viability, T/C [14]: 108%
viability, T/C [15]: 103%
viability, T/C [16]: 92.2%
viability, T/C [17]: 93.7%
viability, T/C [18]: 96.7%
viability, T/C [19]: 87%
viability, T/C [20]: 100%
viability, T/C [21]: 84.6%
viability, T/C [22]: 85.3%
viability, T/C [23]: 99.8%
viability, T/C [24]: 94.1%
viability, T/C [25]: 95.5%
viability, T/C [26]: 97.1%
viability, T/C [27]: 84.5%
viability, T/C [28]: 89.2%
viability, T/C [29]: 95.1%
viability, T/C [30]: 92.1%
viability, T/C [31]: 80.3%
viability, T/C [32]: 92%
viability, T/C [33]: 80.1%
viability, T/C [34]: 90%
viability, T/C [35]: 78.2%
viability, T/C [36]: 99.1%

CC(=O)O[C@H]1C(=O)[C@@]2(C)[C@H]([C@H](OC(=O)c3ccccc3)[C@]3(O)C[C@H](OC(=O)[C@H](O)[C@@H](NC(=O)c4ccccc4)c4ccccc4)C(C)=C1C3(C)C)[C@]1(OC(C)=O)CO[C@@H]1C[C@@H]2O + Cc1[nH]c2ccc(F)cc2c1-c1nc2c3cccnc3c3ncccc3c2[nH]1
IC50 (second compound 0.0316 µM): < 0.0316 µM
IC50 (second compound 0.1 µM): < 0.0316 µM
IC50 (second compound 0.316 µM): < 0.0316 µM
IC50 (second compound 1 µM): < 0.0316 µM
IC50 (second compound 3.16 µM): < 0.0316 µM
IC50 (second compound 10 µM): < 0.0316 µM
viability, T/C [1]: 29.9%
viability, T/C [2]: 10.3%
viability, T/C [3]: 10.7%
viability, T/C [4]: 10.7%
viability, T/C [5]: 10.6%
viability, T/C [6]: 11.5%
viability, T/C [7]: 29.6%
viability, T/C [8]: 13.1%
viability, T/C [9]: 16%
viability, T/C [10]: 12.4%
viability, T/C [11]: 12.3%
viability, T/C [12]: 10%
viability, T/C [13]: 24.9%
viability, T/C [14]: 14.4%
viability, T/C [15]: 14.9%
viability, T/C [16]: 9.44%
viability, T/C [17]: 12.5%
viability, T/C [18]: 11.7%
viability, T/C [19]: 28.6%
viability, T/C [20]: 13.2%
viability, T/C [21]: 12%
viability, T/C [22]: 13.2%
viability, T/C [23]: 9.22%
viability, T/C [24]: 10.8%
viability, T/C [25]: 24.5%
viability, T/C [26]: 12.1%
viability, T/C [27]: 13.4%
viability, T/C [28]: 12.2%
viability, T/C [29]: 11.3%
viability, T/C [30]: 11.8%
viability, T/C [31]: 28%
viability, T/C [32]: 9.49%
viability, T/C [33]: 14.4%
viability, T/C [34]: 14.4%
viability, T/C [35]: 11.1%
viability, T/C [36]: 12.1%
